This note sets out measurements from patent US7687465B2, “Therapeutic cancer vaccine” (Kraeftens Bekaempelse, priority 2003, dated 2010).

The target of one assay is T1, HLA-A2 (Homo sapiens, UniProt P04439, D140Y/D185E/D98H/E176V/E277Q/G131W/G231S/I119V/I121R/I166T/I218V/L300P/L318F/N151K/N90K/P208A/P217A/Q86G/Q94H/R138H/R169H/T345S).
T1 construct: stabilization of the class 1 molecule after loading of peptide to the peptide transporter deficient cell line T2; endogenous in cells; host or cells: T2 (TAP-deficient human cell line), metabolically labelled with [35S]-methionine and lysed
The experiment in a line: Assembly assay for peptide binding to class I MHC molecules. The conditions noted are these: concentration of the peptide required for half maximal binding to HLA-A2; for EC50: read-out: C50. The procedure: Assembly assays for binding of the synthetic peptides to class I MHC molecules metabolically labeled with [^35S]-methionine can be carried out as described below. It will be appreciated by the person skilled in the art that the protocol may be adopted for any peptide and any class I MHC molecule.
Briefly, TAP deficient cells were metabolically labeled with [^35S]-methionine (Amersham, Freiburg, Germany). The cells were lyzed in 0.5 ml lysis buffer (150 mM NaCl, 50 mM TrisHCl, 0.5% NP-40 (Fluka, Buchs, Switzerland), 5 mM EDTA, pH 7.5) with 0.5% Mega-9 (Sigma, St. Louis, USA) in the presence of protease inhibitors (2 mM PMSF, 5 mM iodoacetamide, 2 μg/ml pepstatin, 2 μg/ml leupeptin) with or without synthetic peptide (for a list of positive control peptides, see Table 2).
After 20 min of incubation, the cell nuclei were removed by centrifugation (5 min, 10,000 g) and 50 μl (10% v/v) freshly washed Staphylococcus aureus organisms (Pansorbin, Calbiochem, Nottingham, UK). The next day Pansorbin was removed by centrifugation (12 min, 16,000 g) and the appropriate monoclonal antibody was added at a final concentration of 10 μg/ml, incubated for 90 min, followed by addition of protein A-Sepharose (75 μl, 10% v/v) and incubation for 1 h. The beads were washed 4 times and stored at −20° C. until analysis by electrophoresis.
In the case of an assembly assay with the HLA class I-specific conformation-dependent monoclonal antibody W6/32, samples were eluted in reducing buffer (9.5 M urea, 2% NP-40, 5% 2-mercaptoethanol, 2% Ampholines, pH range 3.5-9.5 (Pharmacia Biotech, Uppsala, Sweden)) and focused for 16 h at 880 V on 5.5% polyacrylamide isoelectric focusing (IEF) gels^20,39.
Samples from assembly assays with allele-specific antibodies were eluted by boiling (5 min) in SDS reducing buffer (50 mM TrisHCl pH 6.8, 2% SDS, 5% 2-mercaptoethanol, 10% glycerol, 2.5% bromophenol blue) and electrophorezed on 12% SDS-PAGE gels (1 h at 200 V). All gels were fixed in 10% acetic acid with 5% methanol and dried onto 3 MM paper (Whatman, Maidstone, UK). MHC heavy chain bands were quantified using the Imagequant Phosphorimager program (Molecular Dynamics, Sunnyvale, Calif., USA). The intensity of the band is directly related to the amount of peptide-bound class I MHC complex recovered during the assay. C50 value (μM) as the concentration of the peptide required for half maximal binding to MHC may thus be determined. The binding affinities of the analysed peptides are determined according to their efficiency of stabilising the HLA class I molecules. The binding affinity is represented as the peptide concentration required to reach half-maximal stabilistation of appropriate HLA-molecule.
Assembly assays for binding of the synthetic peptides to class I MHC molecules metabolically labeled with [^35S]-methionine were carried out as described^15,16. The assembly assay is based on stabilization of the class 1 molecule after loading of peptide to the peptide transporter deficient cell line T2. Subsequently correctly folded stable MHC heavy chains are immunoprecipitated using conformation-dependent antibodies. After IEF electrophoresis, gels were exposed to phosphorImager screens, and peptide binding was quantitated using the Imagequant PhosphorImager program (Molecular Dynamics, Sunnyvale, Calif.).

For assay [1], the system named is peripheral blood T cells or TIL from melanoma patients. Nature of the assay: ELISPOT IFN-γ secretion assay, T-cell responses against HLA-A2 binding ML-IAP peptides. The class given is cell-based, human. The conditions noted are these: for strength of spontaneous CTL response: TIL and PBL from melanoma patients, in words; for TIL samples in which a response against the peptide was detected: TIL from melanoma patients (n=22); for TIL samples in which a response against the peptide was detected / PBL samples in which a response against the peptide was detected: stimulated once in vitro with peptide, number of samples; for PBL samples in which a response against the peptide was detected: peripheral blood T cells from melanoma patients (n=7). The protocol:
Peripheral blood was obtained from melanoma patients before vaccination and subsequent to a series of vaccinations. In order to identify peptide-specific T-cell precursors, peripheral blood lymphocytes (PBL) were used directly in the ELISPOT (designated direct ELISPOT). However, to extend the sensitivity of the ELISPOT assay, PBL were stimulated once in vitro prior to analysis^17,18. At day 0, PBL or crushed lymph nodes were thawed and plated in 2 ml/well at a concentration of 2×10^6 cells in 24-well plates (Nunc, Denmark) in X-vivo medium (Bio Whittaker, Walkersville, Md.), 5% heat-inactivated human serum, and 2 mM of L-glutamine in the presence of 10 μM of peptide. Two days later 20 IU/ml recombinant interleukin-2 (IL-2) (Chiron, Ratingen, Germany) was added to the cultures. The cultured cells were tested for reactivity in the ELISPOT on day 8.
The ELISPOT assay used to quantify peptide epitope specific interferon-7 releasing effector cells was adapted from Lalvani et al.^37, and Scheibenbogen et al.^38. Briefly, nitrocellulose bottomed 96-well plates (MultiScreen MAIP N45, Millipore) were coated overnight at 4° C. with 7.5 μg/ml of anti-IFN-γ antibody (1-D1K, Mabtech, Sweden) in 75 μl sterile PBS. Subsequently, the wells were washed six times with PBS, and non-specific binding were blocked by X-vivo medium for 2 hours at 37° C. Freshly isolated PBL or cells, which had been stimulated once in vitro, were added in duplicates at different cell concentrations (from 10^6 to 10^5 cells per well for non-stimulated PBL, and from 3×10^5-3×10^4 cells per well for PBL which had been stimulated once in vitro), in 100 μl X-vivo medium. Peptides were then added to each well to a final concentration of 2 μM and incubated overnight at 37° C.
The following day, media was discarded and the wells were washed (six times) with PBS containing 0.05% Tween (PBS/Tw) before the addition of biotinylated secondary antibody (7-B6-1-Biotin, Mabtech) at 0.5 μg/ml in 75 μl PBS containing 1% BSA and 0.02% NaN3 (PBS/BSA). The plates were incubated at room temperature for 2 hours. The wells were washed (six times) with PBS/Tw. Then 75 μl of Avidin-enzyme conjugate (AP-Avidin, Calbiochem) diluted 1:2000 in PBS/BSA were added to each well and incubated for 1 hour. The enzyme substrate NBT/BCIP was prepared freshly according to the manufacturers' instructions (Gibco, code 18280-016) and 75 μl were added to each well and incubated for 5-10 min. The reaction was terminated by washing with tap-water upon the emergence of dark purple spots. The spots were then counted using the AlphaImager System (Alpha Innotech, San Leandro, Calif., USA) and the peptide specific CTL frequency could be calculated as the number of spot-forming cells.
To extend the sensitivity of the ELISPOT assay, PBL were stimulated once in vitro prior to analysis^17,18. At day 0, PBL or crushed lymph nodes were thawed and plated in 2 ml/well at a concentration of 2×10^6 cells in 24-well plates (Nunc, Denmark) in X-vivo medium (Bio Whittaker, Walkersville, Md.), 5% heat-inactivated human serum, and 2 mM of L-glutamine in the presence of 10 μM of peptide. Two days later 20 IU/ml recombinant interleukin-2 (IL-2) (Chiron, Ratingen, Germany) was added to the cultures. The cultured cells were tested for reactivity in the ELISPOT on day 12.
The ELISPOT assay used to quantify peptide epitope-specific interferon-γ-releasing effector cells was performed as described previously^19. Briefly, nitrocellulose bottomed 96-well plates (MultiScreen MAIP N45, Millipore, Hedehusene, Denmark) were coated with anti-IFN-7 antibody (1-D1K, Mabtech, Nacka, Sweden). The wells were washed, blocked by X-vivo medium, and cells were added in duplicates at different cell concentrations. Peptides were then added to each well and the plates were incubated overnight. The following day, media was discarded and the wells were washed prior to addition of biotinylated secondary antibody (7-B6-1-Biotin, Mabtech). […]

Ends that are not written are not given here.

For `CC(C)C[C@H](NC(=O)CNC(=O)[C@H](CC(C)C)NC(=O)[C@@H](NC(=O)[C@@H]1CCCN1C(=O)[C@H](CO)NC(=O)CNC(=O)[C@H](CC(C)C)NC(=O)[C@@H](N)CO)C(C)C)C(=O)O` [ML-IAP34], the EC50 at HLA-A2 came out at 1 µM.
Consider `CC[C@H](C)[C@H](NC(=O)[C@@H](N)CCC(N)=O)C(=O)N[C@@H](CC(C)C)C(=O)NCC(=O)N[C@@H](CCC(N)=O)C(=O)N[C@@H](CC(C)C)C(=O)N[C@@H](CCCNC(=N)N)C(=O)N1CCC[C@H]1C(=O)N[C@@H](CC(C)C)C(=O)O` [ML-IAP54], for which, at HLA-A2, the EC50 amounted to 1 µM.
With `CSCC[C@H](NC(=O)CN)C(=O)NCC(=O)N[C@@H](CO)C(=O)N[C@@H](CCC(=O)O)C(=O)N[C@@H](CCC(=O)O)C(=O)N[C@@H](CC(C)C)C(=O)N[C@@H](CCCNC(=N)N)C(=O)N[C@@H](CC(C)C)C(=O)O` [ML-IAP83], at HLA-A2, the EC50 was 30 µM.
On to `CC(C)C[C@H](NC(=O)[C@@H]1CCCN1C(=O)[C@H](Cc1c[nH]c2ccccc12)NC(=O)[C@H](CC(=O)O)NC(=O)[C@H](Cc1ccc(O)cc1)NC(=O)[C@H](Cc1ccccc1)NC(=O)[C@H](CO)NC(=O)[C@H](C)NC(=O)[C@H](CC(C)C)NC(=O)[C@@H](N)CCCNC(=N)N)C(=O)O` [ML-IAP90], for which the EC50 on HLA-A2 was determined as 0.2 µM. Moreover, in assay [1], the “strength of spontaneous CTL response” value is “Weaker spontaneous responses”, the “TIL samples in which a response against the peptide was detected” value is reported as “seven” and the “PBL samples in which a response against the peptide was detected” value was “two”.
For the compound `CC(C)C[C@H](NC(=O)[C@H](CCC(=O)O)NC(=O)[C@@H]1CCCN1C(=O)[C@@H]1CCCN1C(=O)[C@@H](NC(=O)[C@H](CCC(=O)O)NC(=O)[C@H](C)NC(=O)[C@@H](NC(=O)[C@H](CC(C)C)NC(=O)[C@@H]1CCCN1)[C@@H](C)O)C(C)C)C(=O)O` [ML-IAP98], at HLA-A2, the EC50 was above 100 µM.
On the same count and under the same terms, the value for `CC(C)C[C@H](NC(=O)[C@H](CCC(=O)O)NC(=O)[C@@H]1CCCN1C(=O)[C@@H]1CCCN1C(=O)[C@@H](NC(=O)[C@H](CCC(=O)O)NC(=O)[C@H](C)NC(=O)[C@@H](NC(=O)[C@@H](N)CC(C)C)[C@@H](C)O)C(C)C)C(=O)O` [ML-IAP99] was 0.9 µM; that for `CC(C)C[C@H](NC(=O)[C@@H](N)CC(C)C)C(=O)N[C@@H](CCCNC(=N)N)C(=O)N[C@@H](CO)C(=O)N[C@@H](CCCCN)C(=O)NCC(=O)N[C@@H](CCCNC(=N)N)C(=O)N[C@@H](CC(=O)O)C(=O)N[C@@H](Cc1ccccc1)C(=O)N[C@H](C(=O)O)C(C)C` [ML-IAP154] was 10 µM.
On to `CC(C)C[C@H](NC(=O)[C@@H](N)C(C)C)C(=O)N[C@@H](CCC(=O)O)C(=O)N1CCC[C@H]1C(=O)N1CCC[C@H]1C(=O)NCC(=O)N[C@@H](C)C(=O)N[C@@H](CCCNC(=N)N)C(=O)N[C@@H](CC(=O)O)C(=O)N[C@H](C(=O)O)C(C)C` [ML-IAP230], for which, on HLA-A2, the “C50 (μM)” value was “not able to stabilize the HLA-A2 molecule” and the EC50 was above 100 µM. Besides, in assay [1], the “strength of spontaneous CTL response” value is on record as “Weaker spontaneous responses”, the “TIL samples in which a response against the peptide was detected” value was “six” and the “PBL samples in which a response against the peptide was detected” value is reported as “two”.
`CC[C@H](C)[C@H](NC(=O)[C@@H]1CCCN1C(=O)[C@H](CS)NC(=O)[C@H](CC(C)C)NC(=O)[C@@H](N)CCC(N)=O)C(=O)N[C@@H](CS)C(=O)N[C@@H](CCCNC(=N)N)C(=O)N[C@@H](C)C(=O)N1CCC[C@H]1C(=O)N[C@H](C(=O)O)C(C)C` [ML-IAP280]: the EC50 at HLA-A2 came to 20 µM.
For the compound ELPTPRREV [ML-IAP200], on HLA-A2 (listed as MLIAP200), the “C50 (μM)” value is on record as “did not bind”.
Turning to SIVFVPCG [ML-IAP261], the “C50 (μM)” value on HLA-A2 (listed as MLIAP261) is “did not bind”.
